A short description of the data set: activity coefficient (dimensionless); of the first substance listed, at infinite dilution; xn = mol fraction of the nth substance listed. The conditions noted are these: 101 kPa, Liquid, Chromatography, x1 = 0.

Each structure is given as a SMILES string. ± gives the expanded uncertainty stated by the source.

`CCO` [ethanol] + CCCCCCn1cc[n+](C)c1.O=C([O-])C(F)(F)F: the activity coefficient runs as follows: (303.15 K) 0.21 ± 0.03; (313.15 K) 0.22 ± 0.03; (323.15 K) 0.22 ± 0.03; (333.15 K) 0.23 ± 0.04; (343.15 K) 0.24 ± 0.04; (353.15 K) 0.26 ± 0.04. Further, the activity coefficient (363.15 K) was 0.27 ± 0.04.
`ClC(Cl)(Cl)Cl` [tetrachloromethane] + CCCCCCn1cc[n+](C)c1.O=C([O-])C(F)(F)F: the activity coefficient runs as follows: (303.15 K) 0.62 ± 0.07; (313.15 K) 0.7 ± 0.07; (323.15 K) 0.8 ± 0.08; (333.15 K) 0.91 ± 0.09; (343.15 K) 1.02 ± 0.1; (353.15 K) 1.19 ± 0.12. The activity coefficient (363.15 K) came to 1.32 ± 0.14.
In the case of `CCCCCCCCC` [nonane] + CCCCCCn1cc[n+](C)c1.O=C([O-])C(F)(F)F, where the note is “323.15 K”, the activity coefficient was 64.2 ± 6.8.
On to `CC(C)=O` [acetone] + CCCCCCn1cc[n+](C)c1.O=C([O-])C(F)(F)F, for which the activity coefficient runs as follows: (303.15 K) 1.69 ± 0.18; (313.15 K) 1.69 ± 0.18; (323.15 K) 1.68 ± 0.18; (333.15 K) 1.68 ± 0.18; (343.15 K) 1.67 ± 0.17; (353.15 K) 1.67 ± 0.17. Under “363.15 K”, the activity coefficient was 1.67 ± 0.17.
On to `Cc1ccc(C)cc1` [1,4-dimethylbenzene] + CCCCCCn1cc[n+](C)c1.O=C([O-])C(F)(F)F, for which the activity coefficient reads like this: (303.15 K) 4.12 ± 0.43; (313.15 K) 4.18 ± 0.44; (323.15 K) 4.24 ± 0.45; (333.15 K) 4.29 ± 0.45; (343.15 K) 4.32 ± 0.45; (353.15 K) 4.42 ± 0.46. Also, where the note is “363.15 K”, the activity coefficient is 4.43 ± 0.47.
For `CC(C)O` [propan-2-ol] + CCCCCCn1cc[n+](C)c1.O=C([O-])C(F)(F)F, the activity coefficient by setting is: (303.15 K) 0.34 ± 0.04; (313.15 K) 0.35 ± 0.04; (323.15 K) 0.36 ± 0.04; (333.15 K) 0.38 ± 0.05; (343.15 K) 0.39 ± 0.05; (353.15 K) 0.4 ± 0.05. The activity coefficient (363.15 K) is 0.42 ± 0.05.
For the compound `CC1CCCCC1` [methylcyclohexane] + CCCCCCn1cc[n+](C)c1.O=C([O-])C(F)(F)F, the activity coefficient (323.15 K) is 19.8 ± 2.1.
Still for that read-out and setting: to `C1CCCCC1` [cyclohexane] + CCCCCCn1cc[n+](C)c1.O=C([O-])C(F)(F)F belongs 16.9 ± 1.8.
For `Clc1ccccc1` [chlorobenzene] + CCCCCCn1cc[n+](C)c1.O=C([O-])C(F)(F)F, the activity coefficient runs as follows: (303.15 K) 2.27 ± 0.24; (313.15 K) 2.26 ± 0.24; (323.15 K) 2.24 ± 0.24; (333.15 K) 2.22 ± 0.23; (343.15 K) 2.2 ± 0.23; (353.15 K) 2.2 ± 0.23. In addition, where the note is “363.15 K”, the activity coefficient was determined as 2.2 ± 0.23.
Take `Cc1ccccc1` [toluene] + CCCCCCn1cc[n+](C)c1.O=C([O-])C(F)(F)F: the activity coefficient came to 2.97 ± 0.31 (303.15 K); 3.02 ± 0.32 (313.15 K); 3.06 ± 0.32 (323.15 K); 3.1 ± 0.33 (333.15 K); 3.14 ± 0.33 (343.15 K); 3.17 ± 0.33 (353.15 K). Moreover, for the setting “363.15 K”, the activity coefficient was found to be 3.2 ± 0.34.
In the case of `CO` [methanol] + CCCCCCn1cc[n+](C)c1.O=C([O-])C(F)(F)F, the activity coefficient reads like this: (303.15 K) 0.1 ± 0.03; (313.15 K) 0.11 ± 0.03; (323.15 K) 0.12 ± 0.03; (333.15 K) 0.13 ± 0.03; (343.15 K) 0.13 ± 0.03; (353.15 K) 0.16 ± 0.03. Also, under “363.15 K”, the activity coefficient stood at 0.16 ± 0.03.
On to `CCCCCCCC` [octane] + CCCCCCn1cc[n+](C)c1.O=C([O-])C(F)(F)F, for which the activity coefficient (323.15 K) was found to be 49.6 ± 5.2.
With `ClC(Cl)Cl` [trichloromethane] + CCCCCCn1cc[n+](C)c1.O=C([O-])C(F)(F)F, the activity coefficient amounted to 0.08 ± 0.03 (303.15 K); 0.12 ± 0.03 (313.15 K); 0.22 ± 0.03 (323.15 K); 0.3 ± 0.04 (333.15 K); 0.45 ± 0.05 (343.15 K); 0.68 ± 0.07 (353.15 K). Besides, under “363.15 K”, the activity coefficient was 1.06 ± 0.11.
Consider `CC#N` [acetonitrile] + CCCCCCn1cc[n+](C)c1.O=C([O-])C(F)(F)F, for which the activity coefficient came to 1.01 ± 0.1 (303.15 K); 1.05 ± 0.11 (313.15 K); 1.11 ± 0.11 (323.15 K); 1.16 ± 0.12 (333.15 K); 1.22 ± 0.13 (343.15 K); 1.28 ± 0.13 (353.15 K). Further, the activity coefficient (363.15 K) turned out to be 1.32 ± 0.14.
As to `CC(C)CO` [2-methyl-1-propanol] + CCCCCCn1cc[n+](C)c1.O=C([O-])C(F)(F)F, the activity coefficient reads like this: (323.15 K) 0.29 ± 0.04; (333.15 K) 0.3 ± 0.04; (343.15 K) 0.3 ± 0.04; (353.15 K) 0.31 ± 0.04; (363.15 K) 0.31 ± 0.04.
In the case of `C1=CCCCC1` [cyclohexene] + CCCCCCn1cc[n+](C)c1.O=C([O-])C(F)(F)F, the activity coefficient (323.15 K) worked out at 9.6 ± 1.
Regarding `C1COCCO1` [1,4-dioxane] + CCCCCCn1cc[n+](C)c1.O=C([O-])C(F)(F)F, the activity coefficient (303.15 K) is 1.91 ± 0.2; the activity coefficient (313.15 K) was determined as 1.92 ± 0.2; the activity coefficient (323.15 K) amounted to 1.93 ± 0.2; the activity coefficient (333.15 K) was 1.94 ± 0.2; the activity coefficient (343.15 K) was determined as 1.95 ± 0.2; the activity coefficient (353.15 K) came to 1.95 ± 0.2. For the same compound, the activity coefficient (363.15 K) is 1.97 ± 0.21.
With `C=Cc1ccccc1` [styrene] + CCCCCCn1cc[n+](C)c1.O=C([O-])C(F)(F)F, the activity coefficient amounted to 2.28 ± 0.24 (303.15 K); 2.39 ± 0.25 (313.15 K); 2.46 ± 0.26 (323.15 K); 2.53 ± 0.27 (333.15 K); 2.61 ± 0.27 (343.15 K); 2.68 ± 0.28 (353.15 K). In addition, under “363.15 K”, the activity coefficient is 2.73 ± 0.29.
With `CCCCCCC` [heptane] + CCCCCCn1cc[n+](C)c1.O=C([O-])C(F)(F)F, the activity coefficient (323.15 K) was found to be 27 ± 2.8.
For the compound `Cc1cccc(C)c1` [1,3-dimethylbenzene] + CCCCCCn1cc[n+](C)c1.O=C([O-])C(F)(F)F, the activity coefficient is, setting by setting: (303.15 K) 4.19 ± 0.44; (313.15 K) 4.25 ± 0.45; (323.15 K) 4.34 ± 0.46; (333.15 K) 4.39 ± 0.46; (343.15 K) 4.42 ± 0.46; (353.15 K) 4.53 ± 0.48. In addition, the activity coefficient (363.15 K) came out at 4.56 ± 0.48.
`C1CCOC1` [tetrahydrofuran] + CCCCCCn1cc[n+](C)c1.O=C([O-])C(F)(F)F: the activity coefficient is, setting by setting: (303.15 K) 1.95 ± 0.2; (313.15 K) 1.96 ± 0.21; (323.15 K) 1.98 ± 0.21; (333.15 K) 2 ± 0.21; (343.15 K) 2.02 ± 0.21; (353.15 K) 2.02 ± 0.21. Besides, the activity coefficient (363.15 K) amounted to 2.05 ± 0.22.
For the compound `ClCCl` [dichloromethane] + CCCCCCn1cc[n+](C)c1.O=C([O-])C(F)(F)F, the activity coefficient was found to be 0.64 ± 0.07 (303.15 K); 0.65 ± 0.07 (313.15 K); 0.67 ± 0.07 (323.15 K); 0.68 ± 0.07 (333.15 K); 0.7 ± 0.07 (343.15 K); 0.72 ± 0.08 (353.15 K). The activity coefficient (363.15 K) is 0.73 ± 0.08.
For the compound `c1ccccc1` [benzene] + CCCCCCn1cc[n+](C)c1.O=C([O-])C(F)(F)F, the activity coefficient stood at 2.05 ± 0.22 (303.15 K); 2.07 ± 0.22 (313.15 K); 2.09 ± 0.22 (323.15 K); 2.1 ± 0.22 (333.15 K); 2.12 ± 0.22 (343.15 K); 2.13 ± 0.22 (353.15 K). For the same compound, the activity coefficient (363.15 K) amounted to 2.14 ± 0.22.
`Cc1ccccc1C` [1,2-dimethylbenzene] + CCCCCCn1cc[n+](C)c1.O=C([O-])C(F)(F)F: the activity coefficient runs as follows: (303.15 K) 3.54 ± 0.37; (313.15 K) 3.67 ± 0.39; (323.15 K) 3.83 ± 0.4; (333.15 K) 3.98 ± 0.42; (343.15 K) 4.1 ± 0.43; (353.15 K) 4.13 ± 0.43. Moreover, under “363.15 K”, the activity coefficient came out at 4.53 ± 0.48.
Regarding `CC(C)CC(C)(C)C` [2,2,4-trimethylpentane] + CCCCCCn1cc[n+](C)c1.O=C([O-])C(F)(F)F, the activity coefficient (323.15 K) stood at 46.8 ± 4.9.
With `ClCCCl` [1,2-dichloroethane] + CCCCCCn1cc[n+](C)c1.O=C([O-])C(F)(F)F, the activity coefficient was determined as 0.62 ± 0.07 (303.15 K); 0.75 ± 0.08 (313.15 K); 0.9 ± 0.09 (323.15 K); 1.1 ± 0.11 (333.15 K); 1.26 ± 0.13 (343.15 K); 1.62 ± 0.17 (353.15 K). In addition, the activity coefficient (363.15 K) came out at 1.67 ± 0.17.
In the case of `CCCCCC` [hexane] + CCCCCCn1cc[n+](C)c1.O=C([O-])C(F)(F)F, the activity coefficient (323.15 K) stood at 29 ± 3.
As for `CCOC(C)=O` [ethyl acetate] + CCCCCCn1cc[n+](C)c1.O=C([O-])C(F)(F)F, the activity coefficient by setting is: (303.15 K) 2.64 ± 0.28; (313.15 K) 2.8 ± 0.29; (323.15 K) 2.91 ± 0.31; (333.15 K) 3.02 ± 0.32; (343.15 K) 3.12 ± 0.33; (353.15 K) 3.15 ± 0.33. Besides, the activity coefficient (363.15 K) was found to be 3.44 ± 0.36.
Take `CCCO` [propan-1-ol] + CCCCCCn1cc[n+](C)c1.O=C([O-])C(F)(F)F: the activity coefficient came out at 0.24 ± 0.04 (313.15 K); 0.25 ± 0.04 (323.15 K); 0.26 ± 0.04 (333.15 K); 0.27 ± 0.04 (343.15 K); 0.29 ± 0.04 (353.15 K); 0.31 ± 0.04 (363.15 K).

The values are drawn from the NIST ThermoML archive (doi:10.1016/j.jct.2013.10.038).
